Several values for one entry are separate records, joined by “and”; a condition that tells them apart may be missing. Equal values may be shown once. Read-outs that look alike come from different tables or passages of the source.
Key:
GABARAPL2 = GABARAPL2 (Homo sapiens, UniProt P60520); conditions: GABARAPL2:ligand molar ratio 1:2
[1] = test system: RPE-1 GFP-LC3B-RPF-LC3∆G reporter cell line; test: Autophagy flux assay; assay type: cell-based; conditions: rebuttal letter
Source text: LC3/GABARAP in vitro, but no attempts are made to replicate the previously reported cellular activity of these compounds. It would be beneficial to know whether these compounds have any effect on autophagy in the authors’ hands, and therefore could act by alternative mechanisms, or whether they […]
Response: We were very concerned that the ligands used for ATTEC development might induce general toxicity in cell lines, as they are based on drugs used in oncology (such as the kinesin inhibitor 10O5) and the isoxazole scaffold often used in the development of multi-targeted kinase inhibitors. However, we have now investigated compounds 1-4 in autophagy flux assays using the RPE-1 GFP-LC3B-RPF-LC3∆G reporter cell line (single clone) as […]
reported in [PMID:37558952].
(RR_Figure 6). The authors of the first manuscript reporting these ligands [PMID: 31666698]
However, due to the potent activity of 8F20 on KIF11, which will have profound effects on cell trafficking and growth, and DCAF11 (AN1, [PMID: 38036533]), we find it unlikely that the effects on autophagy are due to LC3/GABARAP modulation. Due to the lack of target (LC3/GABARAP) binding in vitro and the […]
of this review but have excluded the data in the manuscript.
RR_figure 5: Autophagy flux measurement for 10O5 and AN2. No induction of autophagy or effects (right panels, assessed by Incucyte (Sartorius) life cell imaging) on cell growth was […]
RR_figure 6: Autophagy flux measurement for 8F20 and AN1 show changes in autophagy flux […]
It is not clear how many biological replicates have been performed. For example, the figure legends […]

LC3B = LC3B (Homo sapiens, UniProt Q9GZQ8); test: FP assay with Cy5-labelled p62 LIR tracer (protein titration and tracer displacement); assay type: binding; conditions: for normalized FP signal, p62 LIR tracer displacement: LC3B; for compound titration LC3B (displacement curve, FP signal): two replicate columns per compound
[2] = log10 concentration [M] -3.82391
[3] = log10 concentration [M] -4.1549
[4] = log10 concentration [M] -4.60206
[5] = log10 concentration [M] -5.30103
[6] = log10 concentration [M] -5.69897
[7] = log10 concentration [M] -6.22185
[8] = log10 concentration [M] -6.69897
[9] = log10 concentration [M] -7.30103
[10] = log10 concentration [M] -7.79588
[11] = log10 concentration [M] -8.08092

Chain of GABARAPL2 (P60520 whole entry): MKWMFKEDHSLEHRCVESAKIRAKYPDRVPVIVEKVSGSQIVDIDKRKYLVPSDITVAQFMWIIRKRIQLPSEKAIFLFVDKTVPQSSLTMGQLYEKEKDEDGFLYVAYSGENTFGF

Cc1ccc(C(=O)N(CCCN)[C@@H](c2nc3cc(Cl)ccc3c(=O)n2Cc2ccccc2)C(C)C)cc1 [compound 3, (R)-N-(3-aminopropyl)-N-(1-(3-benzyl-7-chloro-4-oxo-3,4-dihydroquinazolin-2-yl)−2-methylpropyl)−4-methylbenzamide]
CSP (GABARAPL2; residue A19): 0.00171 ppm
CSP (GABARAPL2; residue A23): 0.00424 ppm
CSP (GABARAPL2; residue A58): 0.00148 ppm
CSP (GABARAPL2; residue A75): 0.002 ppm
CSP (GABARAPL2; residue A108): 0.000762 ppm
CSP (GABARAPL2; residue C15): 0.004 ppm
CSP (GABARAPL2; residue D8): 0.00263 ppm
CSP (GABARAPL2; residue D27): 0.00158 ppm
CSP (GABARAPL2; residue D43): 0.00251 ppm
CSP (GABARAPL2; residue D45): 0.003 ppm
CSP (GABARAPL2; residue D54): 0.000849 ppm
CSP (GABARAPL2; residue D81): 0.00228 ppm
CSP (GABARAPL2; residue D100): 0.00228 ppm
CSP (GABARAPL2; residue D102): 0.00165 ppm
CSP (GABARAPL2; residue E7): 0.00472 ppm
CSP (GABARAPL2; residue E12): 0.00142 ppm
CSP (GABARAPL2; residue E17): 0.000762 ppm
CSP (GABARAPL2; residue E34): 0.009 ppm
CSP (GABARAPL2; residue E73): 0.000762 ppm
CSP (GABARAPL2; residue E96): 0.000707 ppm
CSP (GABARAPL2; residue E98): 0.00122 ppm
CSP (GABARAPL2; residue E101): 0.002 ppm
CSP (GABARAPL2; residue E112): 0.0017 ppm
CSP (GABARAPL2; residue F60): 0.005 ppm
CSP (GABARAPL2; residue F77): 0.000283 ppm
CSP (GABARAPL2; residue F79): 0.002 ppm
CSP (GABARAPL2; residue F104): 0.0075 ppm
CSP (GABARAPL2; residue F115): 0.005 ppm
CSP (GABARAPL2; residue G38): 0.005 ppm
CSP (GABARAPL2; residue G103): 0.00213 ppm
CSP (GABARAPL2; residue G111): 0.00847 ppm
CSP (GABARAPL2; residue G116): 0.0024 ppm
CSP (GABARAPL2; residue H9): 0.010 ppm
CSP (GABARAPL2; residue H13): 0.0011 ppm
CSP (GABARAPL2; residue I21): 0.00184 ppm
CSP (GABARAPL2; residue I32): 0.00354 ppm
CSP (GABARAPL2; residue I41): 0.011 ppm
CSP (GABARAPL2; residue I44): 0.00216 ppm
CSP (GABARAPL2; residue I55): 0.000762 ppm
CSP (GABARAPL2; residue I63): 0.004 ppm
CSP (GABARAPL2; residue I64): 0.00283 ppm
CSP (GABARAPL2; residue I68): 0.008 ppm
CSP (GABARAPL2; residue I76): 0.000707 ppm
CSP (GABARAPL2; residue K2): 0.008 ppm
CSP (GABARAPL2; residue K6): 0.007 ppm
CSP (GABARAPL2; residue K20): 0.000707 ppm
CSP (GABARAPL2; residue K24): 0.001 ppm
CSP (GABARAPL2; residue K35): 0.004 ppm
CSP (GABARAPL2; residue K46, estimated): 0.010 ppm
CSP (GABARAPL2; residue K48): 0.022 ppm
CSP (GABARAPL2; residue K66): 0.00142 ppm
CSP (GABARAPL2; residue K74): 0.000906 ppm
CSP (GABARAPL2; residue K97): 0.00113 ppm
CSP (GABARAPL2; residue K99): 0.00144 ppm
CSP (GABARAPL2; residue L11): 0.000762 ppm
CSP (GABARAPL2; residue L50): 0.00216 ppm
CSP (GABARAPL2; residue L70): 0.0019 ppm
CSP (GABARAPL2; residue L78): 0.00212 ppm
CSP (GABARAPL2; residue L105): 0.00283 ppm
CSP (GABARAPL2; residue M1): 0.006 ppm
CSP (GABARAPL2; residue M61): 0.00221 ppm
CSP (GABARAPL2; residue N113): 0.000141 ppm
CSP (GABARAPL2; residue P26, estimated): 0.002 ppm
CSP (GABARAPL2; residue P30, estimated): 0.002 ppm
CSP (GABARAPL2; residue P52, estimated): 0.002 ppm
CSP (GABARAPL2; residue P71, estimated): 0.002 ppm
CSP (GABARAPL2; residue Q40): 0.00659 ppm
CSP (GABARAPL2; residue Q59): 0.000424 ppm
CSP (GABARAPL2; residue Q69): 0.0011 ppm
CSP (GABARAPL2; residue R14): 0.003 ppm
CSP (GABARAPL2; residue R22): 0.00649 ppm
CSP (GABARAPL2; residue R28): 0.00232 ppm
CSP (GABARAPL2; residue R47, estimated): 0.015 ppm
CSP (GABARAPL2; residue R65): 0.0022 ppm
CSP (GABARAPL2; residue R67): 0.003 ppm
CSP (GABARAPL2; residue S10): 0.008 ppm
CSP (GABARAPL2; residue S18): 0.00146 ppm
CSP (GABARAPL2; residue S37): 0.005 ppm
CSP (GABARAPL2; residue S39): 0.00232 ppm
CSP (GABARAPL2; residue S53): 0.002 ppm
CSP (GABARAPL2; residue S72): 0.00122 ppm
CSP (GABARAPL2; residue S110): 0.000825 ppm
CSP (GABARAPL2; residue T56): 0.00133 ppm
CSP (GABARAPL2; residue T114): 0.0017 ppm
CSP (GABARAPL2; residue V16): 0.000141 ppm
CSP (GABARAPL2; residue V29): 0.00214 ppm
CSP (GABARAPL2; residue V31): 0.00444 ppm
CSP (GABARAPL2; residue V33): 0.00281 ppm
CSP (GABARAPL2; residue V36): 0.00638 ppm
CSP (GABARAPL2; residue V42): 0.00652 ppm
CSP (GABARAPL2; residue V51): 0.00319 ppm
CSP (GABARAPL2; residue V57): 0.00127 ppm
CSP (GABARAPL2; residue V80): 0.00281 ppm
CSP (GABARAPL2; residue V107): 0.005 ppm
CSP (GABARAPL2; residue W3): 0.007 ppm
CSP (GABARAPL2; residue W62): 0.0057 ppm
CSP (GABARAPL2; residue Y25): 0.00742 ppm
CSP (GABARAPL2; residue Y49): 0.010 ppm
CSP (GABARAPL2; residue Y106): 0.00214 ppm
CSP (GABARAPL2; residue Y109): 0.00263 ppm
autophagy induction (autophagy flux) [1]: significant autophagy activation
effects on cell growth (Incucyte life cell imaging) [1]: profound effects on cell growth
normalized FP signal, p62 LIR tracer displacement (LC3B; [2]): 79.4737 and 100.789
normalized FP signal, p62 LIR tracer displacement (LC3B; [3]): 91.0526 and 93.9474
normalized FP signal, p62 LIR tracer displacement (LC3B; [4]): 98.6842 and 96.3158
normalized FP signal, p62 LIR tracer displacement (LC3B; log10 concentration [M] -5): 92.3684 and 100.263
normalized FP signal, p62 LIR tracer displacement (LC3B; [5]): 95.7895 and 96.5789
normalized FP signal, p62 LIR tracer displacement (LC3B; [6]): 95.5263 and 96.0526
normalized FP signal, p62 LIR tracer displacement (LC3B; [7]): 92.1053 and 92.3684
normalized FP signal, p62 LIR tracer displacement (LC3B; [8]): 97.6316 and 96.5789
normalized FP signal, p62 LIR tracer displacement (LC3B; [9]): 93.1579 and 99.7368
normalized FP signal, p62 LIR tracer displacement (LC3B; [10]): 100.263 and 96.8421
normalized FP signal, p62 LIR tracer displacement (LC3B; [11]): 95.2632 and 96.3158
compound titration LC3B (displacement curve, FP signal) (LC3B; [2]): 79.4737 and 100.789
compound titration LC3B (displacement curve, FP signal) (LC3B; [3]): 91.0526 and 93.9474
compound titration LC3B (displacement curve, FP signal) (LC3B; [4]): 98.6842 and 96.3158
compound titration LC3B (displacement curve, FP signal) (LC3B; log10 concentration [M] -5): 92.3684 and 100.263
compound titration LC3B (displacement curve, FP signal) (LC3B; [5]): 95.7895 and 96.5789
compound titration LC3B (displacement curve, FP signal) (LC3B; [6]): 95.5263 and 96.0526
compound titration LC3B (displacement curve, FP signal) (LC3B; [7]): 92.1053 and 92.3684
compound titration LC3B (displacement curve, FP signal) (LC3B; [8]): 97.6316 and 96.5789
compound titration LC3B (displacement curve, FP signal) (LC3B; [9]): 93.1579 and 99.7368
compound titration LC3B (displacement curve, FP signal) (LC3B; [10]): 100.263 and 96.8421
compound titration LC3B (displacement curve, FP signal) (LC3B; [11]): 95.2632 and 96.3158

Source: article PMC11589570, “Critical assessment of LC3/GABARAP ligands used for degrader development and ligandability of LC3/GABARAP binding pockets” (Nature Communications, 2024)
